Assay results taken from PMC2248166, “Quantitative peptide binding motifs for 19 human and mouse MHC class I molecules derived using positional scanning combinatorial peptide libraries” (Immunome Research, 2008).

Legend:
Assay type in all cases: binding
HLA A*3001 = HLA A*3001 (Homo sapiens, UniProt P04439, D140H/D185E/E176W/F33S/G80R/H175R/K168Q/R138E/R41S); assay: biochemical
HLA A*3201 = HLA A*3201 (Homo sapiens, UniProt P04439, A270S/D101S/D185E/E176V/E277Q/F133L/G103R/G107R/G231S/H175R/I121M/I218V/I322F/K168Q/L105A/L300P/L318F/M331R/P208A/P217A/Q94H/R106L/R138Q/S129P/T104I/T323A/T345S/V100E/V321M/V358M); assay: biochemical
HLA A*6802 = HLA A*6802 (Homo sapiens, UniProt P04439, A269V/D140Y/D185E/E176V/E277Q/E87N/F33Y/G231S/I121R/I166T/I218V/L180W/L300P/L318F/N151K/P208A/P217A/Q86R/R138H/R169H/S129P/T345S/V36M)
HLA B*0801 = HLA B*0801 (Homo sapiens, UniProt P01889, A93T/A95T/D138N/E176V/E187T/K202T/Q94N/R180D/S35A/V36M/Y33D/Y91F); assay: biochemical
HLA B*1501 = HLA B*1501 (Homo sapiens, UniProt P01889, A329T/A93T/A95T/C349S/D201E/D98Y/E187L/E204Q/E69M/E70A/K202T/N87E/Q94N/R155S/R180W/S121R/S35A/S48A/V306I/V36M/Y140S/Y91S); assay: biochemical
HLA B*1503 = HLA B*1503 (Homo sapiens, UniProt P01889, A329T/A93T/A95T/C349S/D201E/D98Y/E187L/E204Q/K202T/N87E/Q94N/R155S/R180L/S121R/S35A/V306I/V36M/Y140S/Y91S); assay: biochemical
HLA B*3501 = HLA B*3501 (Homo sapiens, UniProt P01889, A329T/A93T/A95T/C349S/D201E/D98Y/E176V/E187L/E204Q/E69T/I218V/K202T/L119I/Q94N/R155S/R180L/S121R/S35A/S48A/T118I/V127L/V306I/V36M/Y140S/Y91F)
HLA B*5101 = HLA B*5101 (Homo sapiens, UniProt P01889, A329T/A93T/A95T/C349S/D138N/D201E/D98Y/E187L/E204Q/E69T/G107R/I218V/K202T/L105A/L119W/N104I/Q94N/R106L/R155S/R180L/S101N/S121T/S35A/S48A/V306I/V36M/Y195H/Y91F)
HLA B*5301 = HLA B*5301 (Homo sapiens, UniProt P01889, A329T/A93T/A95T/C349S/D201E/D98Y/E176V/E187L/E204Q/E69T/G107R/I218V/K202T/L105A/L119I/N104I/Q94N/R106L/R155S/R180L/S101N/S121R/S35A/S48A/T118I/V127L/V306I/V36M/Y140S/Y91F)
HLA B*5401 = HLA B*5401 (Homo sapiens, UniProt P01889, A329T/C349S/D138N/D201E/E176V/E187T/E204Q/E69G/I76V/K202T/L119W/R155S/R180L/S121T/S35A/S48A/V127L/V306I/V36M/Y140L)
HLA B*5801 = HLA B*5801 (Homo sapiens, UniProt P01889, A329T/C349S/D201E/D98Y/E176V/E187L/E204Q/E69T/G107R/I218V/I90N/K202T/L105A/L119I/N104I/N87E/Q89R/Q94S/R106L/R155S/R180L/R86G/S101N/S121R/S35A/S48A/T118I/V127L/V306I/V36M/Y140S/Y91M)
HLA B*5802 = HLA B*5802 (Homo sapiens, UniProt P01889, A329T/C349S/D201E/D98Y/E176V/E187L/E204Q/E69T/G107R/I218V/I90N/K202T/L105A/N104I/N87E/Q89R/Q94S/R106L/R155S/R180L/R86G/S101N/S121W/S35A/S48A/V127L/V306I/V36M/Y140S/Y91M)
H-2 D^b = H-2 D^b (Mus musculus, UniProt P01899)
Sequence of H-2 D^b (P01887 21-119): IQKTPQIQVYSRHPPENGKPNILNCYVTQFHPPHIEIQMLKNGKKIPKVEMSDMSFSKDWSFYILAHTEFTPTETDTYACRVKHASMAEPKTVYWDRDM
Sequence of H-2 D^b (P01899 25-362): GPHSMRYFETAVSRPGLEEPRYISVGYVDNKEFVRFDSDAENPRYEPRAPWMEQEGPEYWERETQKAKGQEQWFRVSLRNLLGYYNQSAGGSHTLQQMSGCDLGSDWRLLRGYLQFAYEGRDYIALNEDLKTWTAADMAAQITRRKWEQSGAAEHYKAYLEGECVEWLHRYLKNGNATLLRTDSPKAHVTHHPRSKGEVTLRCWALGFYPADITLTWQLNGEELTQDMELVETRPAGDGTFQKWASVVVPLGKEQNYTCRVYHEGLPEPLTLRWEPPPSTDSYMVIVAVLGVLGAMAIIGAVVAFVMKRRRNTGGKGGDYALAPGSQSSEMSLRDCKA

H-2 D^d = H-2 D^d (Mus musculus, UniProt P01900)
Sequence of H-2 D^d (P01900 whole entry, looked up): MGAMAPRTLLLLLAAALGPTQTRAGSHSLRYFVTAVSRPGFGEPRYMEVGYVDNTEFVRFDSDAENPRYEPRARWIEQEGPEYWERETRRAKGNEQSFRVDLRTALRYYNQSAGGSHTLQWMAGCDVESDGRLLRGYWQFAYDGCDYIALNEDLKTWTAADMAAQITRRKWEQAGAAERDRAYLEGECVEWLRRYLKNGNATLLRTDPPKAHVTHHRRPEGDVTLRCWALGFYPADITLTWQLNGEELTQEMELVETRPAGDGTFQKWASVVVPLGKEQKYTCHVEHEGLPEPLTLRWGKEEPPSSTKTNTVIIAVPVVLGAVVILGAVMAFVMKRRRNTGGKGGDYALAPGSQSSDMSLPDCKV

H-2 K^d = H-2 K^d (Mus musculus, UniProt P01902)
Sequence of H-2 K^d (P01887 21-119): as the sequence (P01887 21-119) above
Sequence of H-2 K^d (P01902 22-368): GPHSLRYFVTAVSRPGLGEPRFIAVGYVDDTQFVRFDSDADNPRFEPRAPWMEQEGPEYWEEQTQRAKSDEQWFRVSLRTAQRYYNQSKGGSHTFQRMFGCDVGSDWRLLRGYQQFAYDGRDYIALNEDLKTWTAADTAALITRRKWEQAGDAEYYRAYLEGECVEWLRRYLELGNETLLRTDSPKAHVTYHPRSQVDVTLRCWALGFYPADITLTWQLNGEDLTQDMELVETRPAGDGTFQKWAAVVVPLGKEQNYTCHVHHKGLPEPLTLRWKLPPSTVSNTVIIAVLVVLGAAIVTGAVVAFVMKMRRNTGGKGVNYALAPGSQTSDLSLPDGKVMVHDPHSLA

H-2 K^k = H-2 K^k (Mus musculus, UniProt P04223)
Sequence of H-2 K^k (P01887 21-119): as the sequence (P01887 21-119) above
Sequence of H-2 K^k (P04223 22-369): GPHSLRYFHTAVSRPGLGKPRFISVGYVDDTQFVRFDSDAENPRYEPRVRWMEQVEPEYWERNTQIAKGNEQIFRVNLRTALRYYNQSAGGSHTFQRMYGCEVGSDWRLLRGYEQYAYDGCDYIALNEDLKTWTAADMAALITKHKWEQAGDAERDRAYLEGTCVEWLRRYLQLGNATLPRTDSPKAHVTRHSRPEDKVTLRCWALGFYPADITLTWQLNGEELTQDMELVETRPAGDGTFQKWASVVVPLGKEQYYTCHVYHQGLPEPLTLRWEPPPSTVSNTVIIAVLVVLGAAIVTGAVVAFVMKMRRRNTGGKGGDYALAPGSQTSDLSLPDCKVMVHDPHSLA

Row | Sequence | Normalized average relative binding affinity(ARB) (HLA A*3001) | Normalized average relative binding affinity(ARB) (HLA A*3201) | Normalized average relative binding affinity(ARB) (HLA A*6802) | Normalized average relative binding affinity(ARB) (HLA B*0801) | Normalized average relative binding affinity(ARB) (HLA B*1501) | Normalized average relative binding affinity(ARB) (HLA B*1503) | Normalized average relative binding affinity(ARB) (HLA B*3501) | Normalized average relative binding affinity(ARB) (HLA B*5101) | Normalized average relative binding affinity(ARB) (HLA B*5301) | Normalized average relative binding affinity(ARB) (HLA B*5401) | Normalized average relative binding affinity(ARB) (HLA B*5801) | Normalized average relative binding affinity(ARB) (HLA B*5802) | Normalized average relative binding affinity(ARB) (H-2 D^b) | Normalized average relative binding affinity(ARB) (H-2 D^d) | Normalized average relative binding affinity(ARB) (H-2 K^d) | Normalized average relative binding affinity(ARB) (H-2 K^k)
1 | XXXXQXXXX [3064.0094] | 0.20 | 0.38 | 0.077 | 0.037 | 1.0 | 0.20 | 0.28 | 0.29 | 0.12 | 0.40 | 0.19 | 0.063 | 0.023 | 0.15 | 0.15 | 0.099
2 | XXXXRXXXX [3064.0095] | 0.80 | 0.27 | 0.19 | 1.0 | 0.64 | 0.28 | 0.23 | 0.49 | 0.11 | 0.21 | 0.15 | 0.20 | 0.020 | 1.0 | 0.023 | 0.072
3 | XXXXSXXXX [3064.0096] | 1.0 | 0.20 | 0.34 | 0.065 | 0.71 | 0.47 | 0.27 | 0.35 | 0.16 | 0.18 | 0.31 | 0.063 | 0.079 | 0.21 | 1.0 | 0.18
4 | XXXXTXXXX [3064.0097] | 0.18 | 0.062 | 0.044 | 0.011 | 0.62 | 0.43 | 0.21 | 0.51 | 0.11 | 0.085 | 0.33 | 0.16 | 0.018 | 0.18 | 0.42 | 0.16
5 | XXXXVXXXX [3064.0098] | 0.35 | 0.47 | 0.51 | 0.019 | 0.56 | 0.24 | 0.22 | 0.36 | 0.18 | 0.042 | 1.0 | 0.87 | 0.021 | 0.25 | 0.24 | 0.18
6 | XXXXWXXXX [3064.0099] | 0.16 | 0.65 | 0.26 | 0.023 | 0.49 | 0.44 | 0.29 | 0.19 | 0.074 | 0.14 | 0.30 | 1.0 | 0.013 | 0.098 | 0.21 | 1.0
7 | XXXXXAXXX [3064.0101] | 0.34 | 0.83 | 0.82 | 0.011 | 0.30 | 0.45 | 0.21 | 0.43 | 0.65 | 0.20 | 0.28 | 0.91 | 0.62 | 0.51 | 0.26 | 0.83
8 | XXXXXCXXX [3064.0102] | 0.13 | 0.19 | 0.44 | 0.039 | 0.40 | 0.096 | 0.15 | 0.26 | 0.13 | 0.10 | 0.17 | 0.38 | 0.66 | 0.43 | 0.26 | 0.40
